Results taken from patent US8030341B2, “Dmt-derivative compounds and related compositions and methods of use” (priority 2005, dated 2011).
Like-named read-outs stand apart in the source and are kept apart here. Non-standard residues stand in square brackets, D forms with d. Residues, ends and D or L forms follow the SMILES beside them. Dmt = Cc1cc(O)cc(C)c1C[C@H](N)C(=O)O; Tic = O=C(O)[C@@H]1Cc2ccccc2CN1

How the values were obtained:
δ-opioid receptor [1] = molecular target: T1, δ-opioid receptor (Mus musculus, UniProt P32300); experiment: mouse vas deferens (MVD) bioassay; assay type: cell-based; conditions: for MVD Antagonist pA2 (nM), value in parentheses (Ke): versus deltorphin II, antilog of pA2; for MVD Antagonist pA2: versus deltorphin II as agonist
T1 construct: from tissue; host or cells: isolated mouse vas deferens
Description: Bioorg. Med. Chem., 11: 675-678 (2003). The isolated tissues were suspended in organ baths containing balanced salt solutions in a physiological buffer, pH 7.5. […]

μ-opioid receptor [2] = molecular target: μ-opioid receptor (Cavia porcellus, UniProt P97266); experiment: guinea pig ileum (GPI) bioassay; assay type: cell-based; conditions: for GPI Antagonist pA2 (nM), value in parentheses (Ke): versus endomorphin-2, antilog of pA2
Method: The myenteric plexus longitudinal muscle preparations (2-3 cm segments) from the small intestine of male Hartley strain guinea pigs (GP1) measured μ-opioid receptor agonism and a single mouse vas deferens (MVD) was used to determine δ-opioid receptor agonism as described in Sasaki et al. Bioorg. […] The isolated tissues were suspended in organ baths containing balanced salt solutions in a physiological buffer, pH 7.5. Agonists were tested for the inhibition of electrically evoked contraction and expressed as IC50 (nM) obtained from the dose-response curves.

δ-opioid receptor [3] = molecular target: T2, δ-opioid receptor (Rattus norvegicus, UniProt P33533); experiment: opioid receptor binding competition assay, rat brain P2 synaptosomal membranes (δ); conditions: for Ki(μ)/Ki(δ): selectivity ratio
T2 construct: from tissue; host or cells: rat brain P2 synaptosomal membranes (Sprague-Dawley)
Method: (§1) Synaptosomes were preincubated to remove endogenous opioids, washed in excess ice-cold buffer containing protease inhibitor and stored in a glycerol-containing buffer with protease inhibitor at −80° C. as described in Lazarus et al., J. Med. Chem. 34:1350-55 (1991). […] After incubation, the radiolabeled membranes were rapidly filtered on Whatman GF/C glass fiber filters presoaked in 0.1% polyethylenimine in order to optimize the signal-to-noise ratio, washed with ice-cold BSA buffer, and dried at 75-80° C. Radioactivity was determined using EcoLume (ICN, Costa Mesa, Calif.). All compounds were analyzed in duplicate using 5-8 peptide dosages and several synaptosomal preparations in independent repetitions to ensure statistical significance. The affinity constants (Ki) were calculated according to Cheng and Prusoff (Cheng et al., Biochem. Pharmacol., 22: 3099-3108 ([…])).

μ-opioid receptor [4] = molecular target: T3, μ-opioid receptor (Rattus norvegicus, UniProt P33535); experiment: opioid receptor binding competition assay, rat brain P2 synaptosomal membranes (μ); conditions: for Ki(δ)/Ki(μ): selectivity ratio
T3 construct: from tissue; host or cells: rat brain P2 synaptosomal membranes (Sprague-Dawley)
Method: as §1

[5] = Table 2, inhibition of electrically evoked contraction, read-out: MVD agonist IC50
[6] = Table 2, inhibition of electrically evoked contraction, read-out: GPI agonist IC50
[7] = Table 1, rat brain synaptosomes, footnote a: versus [3H]DAMGO, read-out: Ki(δ)
[8] = Table 1, rat brain synaptosomes, footnote b: versus [3H]DPDPE, read-out: Ki(μ)

T3 sequence (P33535 whole entry): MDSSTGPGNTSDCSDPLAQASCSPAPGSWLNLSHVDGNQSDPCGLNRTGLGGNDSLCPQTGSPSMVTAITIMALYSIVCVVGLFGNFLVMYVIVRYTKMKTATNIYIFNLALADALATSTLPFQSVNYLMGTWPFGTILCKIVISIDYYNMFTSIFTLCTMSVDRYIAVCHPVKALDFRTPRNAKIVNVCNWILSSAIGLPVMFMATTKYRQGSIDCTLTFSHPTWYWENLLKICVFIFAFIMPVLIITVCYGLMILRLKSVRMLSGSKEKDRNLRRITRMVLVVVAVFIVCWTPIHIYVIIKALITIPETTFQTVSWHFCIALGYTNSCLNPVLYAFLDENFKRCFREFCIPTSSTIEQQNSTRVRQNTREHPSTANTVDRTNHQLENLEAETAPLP
T2 sequence (P33533 whole entry): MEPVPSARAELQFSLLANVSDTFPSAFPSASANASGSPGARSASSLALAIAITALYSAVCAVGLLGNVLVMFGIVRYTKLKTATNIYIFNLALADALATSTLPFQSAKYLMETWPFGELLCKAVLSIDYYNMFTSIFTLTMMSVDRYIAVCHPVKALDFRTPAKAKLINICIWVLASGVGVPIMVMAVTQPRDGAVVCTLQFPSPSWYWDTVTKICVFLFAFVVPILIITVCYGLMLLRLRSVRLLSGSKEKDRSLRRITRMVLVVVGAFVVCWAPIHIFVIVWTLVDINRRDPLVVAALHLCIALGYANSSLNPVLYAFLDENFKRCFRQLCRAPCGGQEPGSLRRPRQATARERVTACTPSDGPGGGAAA
T1 sequence (P32300 whole entry): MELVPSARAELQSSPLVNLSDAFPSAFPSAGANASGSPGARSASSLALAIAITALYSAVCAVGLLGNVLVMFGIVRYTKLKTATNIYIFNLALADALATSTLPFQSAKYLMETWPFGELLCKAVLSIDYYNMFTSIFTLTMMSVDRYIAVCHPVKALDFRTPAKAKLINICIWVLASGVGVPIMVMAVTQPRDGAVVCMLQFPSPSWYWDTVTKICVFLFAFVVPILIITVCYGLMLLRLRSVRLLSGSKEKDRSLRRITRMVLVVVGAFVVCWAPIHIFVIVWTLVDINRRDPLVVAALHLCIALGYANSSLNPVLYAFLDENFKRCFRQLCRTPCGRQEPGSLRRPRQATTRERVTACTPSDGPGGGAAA
μ-opioid receptor (Cavia porcellus, UniProt P97266), sequence (P97266 whole entry, looked up): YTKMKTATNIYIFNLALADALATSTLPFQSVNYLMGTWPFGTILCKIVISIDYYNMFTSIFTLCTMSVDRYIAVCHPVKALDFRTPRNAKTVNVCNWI

Q: Which results are given for `Cc1cc(O)cc(C)c1CC(N)C(=O)N1Cc2ccccc2CC1C(=O)NCCCCCCCCCCNC(=O)C1Cc2ccccc2CN1C(=O)C(N)Cc1c(C)cc(O)cc1C` (centres unmarked) [Compound 20, 1,10-Bis(Drat-Tic-amino)decane]?
A: IC50 (δ-opioid receptor [1]): > 10000 nM; MVD Antagonist pA2 (nM), value in parentheses (Ke) (δ-opioid receptor [1]; Table 2): 0.0107 nM; IC50 (μ-opioid receptor [2]): 5420 ± 1840 nM; Ki (δ-opioid receptor [3]): 1.53 ± 0.16 nM; Ki(μ)/Ki(δ) (δ-opioid receptor [3]; Table 1): 3; Ki (μ-opioid receptor [4]): 4.86 ± 0.41 nM

Q: `Cc1cc(O)cc(C)c1CC(C(=O)N1Cc2ccccc2CC1C(=O)NCCCCCCNC(=O)C1Cc2ccccc2CN1C(=O)C(Cc1c(C)cc(O)cc1C)N(C)C)N(C)C` (stereo not drawn) [Compound 21, 1,6-Bis(N,N-Dimethyl-Dmt-Tic-NH)-hexane] was tested. Which IC50 (δ-opioid receptor [1]) did it give?
A: > 10000 nM

Q: And the “MVD Antagonist pA2 (nM), value in parentheses (Ke)” value (“MVD Antagonist pA2 (nM), value” below) (δ-opioid receptor [1]; Table 2)?
A: 0.0052 nM

Q: And the IC50 (μ-opioid receptor [2])?
A: > 10000 nM

Q: And the Kb (μ-opioid receptor [2])?
A: 4 nM

Q: What about the Ki (δ-opioid receptor [3]) of the same compound?
A: 0.06 ± 0.01 nM

Q: What about the “Ki(μ)/Ki(δ)” value (δ-opioid receptor [3]; Table 1) of the same compound?
A: 37

Q: And the Ki (μ-opioid receptor [4])?
A: 2.21 ± 0.08 nM

Q: Which IC50 (δ-opioid receptor [1]; [5]) does the source give for “3,6-Bis(Dmt-Tic-NH-propyl)˜2(1H)-pyrazinone [Compound 10]” here?
A: > 10000 nM

Q: And the “MVD Antagonist pA2” value (δ-opioid receptor [1]; Table 2)?
A: 10.56

Q: What about the “MVD Antagonist pA2 (nM), value” value (δ-opioid receptor [1]; Table 2) of the same compound?
A: 0.0275 nM

Q: What about the IC50 (μ-opioid receptor [2]; [6]) of the same compound?
A: 7020 ± 2470 nM

Q: And the Ki (δ-opioid receptor [3]; [7])?
A: 0.155 ± 0.016 nM

Q: What about the “Ki(μ)/Ki(δ)” value (δ-opioid receptor [3]; Table 1) of the same compound?
A: 20

Q: And the Ki (μ-opioid receptor [4]; [8])?
A: 3.08 ± 0.17 nM

Q: Which results are given for `Cc1cc(O)cc(C)c1CC(N)C(=O)N1Cc2ccccc2CC1C(=O)NCCCCCCNC(=O)C1Cc2ccccc2CN1C(=O)C(N)Cc1c(C)cc(O)cc1C` (stereo not drawn) [Compound 19, 1,6-Bis(Dmt-Tic-amino)hexane]?
A: IC50 (δ-opioid receptor [1]): > 10000 nM; MVD Antagonist pA2 (nM), value in parentheses (Ke) (δ-opioid receptor [1]; Table 2): 0.024 nM; Ki (δ-opioid receptor [3]): 0.129 ± 0.03 nM; Ki (μ-opioid receptor [4]): 1.79 ± 0.08 nM

Q: Which results are given for `C=CCN(CC=C)[C@@H](Cc1c(C)cc(O)cc1C)C(=O)N1CCC[C@H]1C(=O)N[C@@H](Cc1ccccc1)C(=O)N[C@@H](Cc1ccccc1)C(N)=O` [Compound 30, [N,N-(allyl)2Dmt^1]EM-2]?
A: GPI pA2 (μ-opioid receptor [2]; Table 4, μ antagonism): None; Ki(δ)/Ki(μ) (μ-opioid receptor [4]; Table 3): 108

Q: Which results are given for `Cc1cc(O)cc(C)c1CC(N)C(=O)N1Cc2ccccc2CC1C(=O)NCCc1cnc(CCNC(=O)C2Cc3ccccc3CN2C(=O)C(N)Cc2c(C)cc(O)cc2C)c(=O)[nH]1` (stereo not drawn) [Compound 9, 3,6-Bis(Dmt-Tic-NH-ethyl)-2(1H)-pyrazinone]?
A: IC50 (δ-opioid receptor [1]; [5]): > 10000 nM; MVD Antagonist pA2 (δ-opioid receptor [1]; Table 2): 10.73; MVD Antagonist pA2 (nM), value in parentheses (Ke) (δ-opioid receptor [1]; Table 2): 0.0186 nM; IC50 (μ-opioid receptor [2]; [6]): > 10000 nM; GPI Antagonist pA2 (nM), value in parentheses (Ke) (μ-opioid receptor [2]; Table 2): 165 nM; GPI Antagonist pA2 (μ-opioid receptor [2]; Table 2, versus endomorphin-2 as agonist): 6.78; Ki (δ-opioid receptor [3]; [7]): 0.095 ± 0.0004 nM; Ki(μ)/Ki(δ) (δ-opioid receptor [3]; Table 1): 30; Ki (μ-opioid receptor [4]; [8]): 2.83 ± 0.12 nM

Q: How did the Ki (δ-opioid receptor [3]) turn out when `C=CCN(CC=C)[C@@H](Cc1ccc(O)cc1)C(=O)N1CCC[C@H]1C(=O)N[C@@H](Cc1ccccc1)C(=O)N[C@@H](Cc1ccccc1)C(N)=O` [Compound 28, [N,N-Diallyl-Tyr^1]EM-2] was run?
A: 5760 ± 1220 nM

Q: What about the Ki (μ-opioid receptor [4]) of the same compound?
A: 1050 ± 175 nM

Q: What about the “Ki(δ)/Ki(μ)” value (μ-opioid receptor [4]; Table 3) of the same compound?
A: 6

Q: Which IC50 (δ-opioid receptor [1]; [5]) does the source give for “3-(Dmt-Tic-NH-propyl)-6-(Dmt-Tic-NH-butyl)-2(1H)-pyrazinone [Compound 12]” here?
A: > 10000 nM

Q: What about the “MVD Antagonist pA2” value (δ-opioid receptor [1]; Table 2) of the same compound?
A: 10.60

Q: And the “MVD Antagonist pA2 (nM), value” value (δ-opioid receptor [1]; Table 2)?
A: 0.0251 nM

Q: What about the IC50 (μ-opioid receptor [2]; [6]) of the same compound?
A: > 10000 nM

Q: What about the Ki (δ-opioid receptor [3]; [7]) of the same compound?
A: 0.16 ± 0.025 nM

Q: What about the “Ki(μ)/Ki(δ)” value (δ-opioid receptor [3]; Table 1) of the same compound?
A: 10

Q: What about the Ki (μ-opioid receptor [4]; [8]) of the same compound?
A: 1.56 ± 0.11 nM

Q: How did the IC50 (δ-opioid receptor [1]) turn out when `Cc1cc(O)cc(C)c1CC(N)C(=O)N1Cc2ccccc2CC1C(=O)NCCCCNC(=O)C1Cc2ccccc2CN1C(=O)C(N)Cc1c(C)cc(O)cc1C` (stereo not drawn) [Compound 18, 1,4-Bis(Dmt-Tic-amino)butane] was run?
A: > 10000 nM

Q: What about the “MVD Antagonist pA2 (nM), value” value (δ-opioid receptor [1]; Table 2) of the same compound?
A: 0.0309 nM

Q: And the IC50 (μ-opioid receptor [2])?
A: > 10000 nM

Q: What about the “GPI Antagonist pA2 (nM), value in parentheses (Ke)” value (μ-opioid receptor [2]; Table 2) of the same compound?
A: 102 nM

Q: And the Ki (δ-opioid receptor [3])?
A: 0.124 ± 0.016 nM

Q: What about the “Ki(μ)/Ki(δ)” value (δ-opioid receptor [3]; Table 1) of the same compound?
A: 46

Q: And the Ki (μ-opioid receptor [4])?
A: 5.72 ± 0.22 nM

Q: What does the source list for `C=CCN[C@@H](Cc1ccc(O)cc1)C(=O)N1CCC[C@H]1C(=O)N[C@@H](Cc1ccccc1)C(=O)N[C@@H](Cc1ccccc1)C(N)=O` [Compound 29, [N-allyl]EM-2]?
A: Ki (δ-opioid receptor [3]; Table 3, versus [3H]DPDPE, rat brain synaptosomes, read-out: Ki(δ)): 7360 ± 259 nM; Ki(δ)/Ki(μ) (μ-opioid receptor [4]; Table 3): 57; Ki (μ-opioid receptor [4]; Table 3, versus [3H]DAMGO, rat brain synaptosomes, read-out: Ki(μ)): 130 ± 9.27 nM

Q: `Cc1cc(O)cc(C)c1C[C@H](N)C(=O)N1Cc2ccccc2C[C@H]1C(=O)O` [H-Dmt-Tic-OH, reference compound] (H-[Dmt]-[Tic]-OH) was tested. Which “MVD agonist IC50, nM” value (δ-opioid receptor [1]; Table 2, inhibition of electrically evoked contraction) did it give?
A: none
